Measurements taken from US20250354185A1, “BLUE PIGMENT AND BIOSYNTHESIS METHOD THEREOF” (VERTEXYN BIOWORKS CO., LTD., priority 2024, published 2025).

How the values were obtained:
Assay type in all cases: physicochemical
[1] = Ultraviolet-visible absorption spectrum of HPLC product peaks; conditions: HPLC peaks of experimental group 5 (8.8 min indigoidine, 9.9 min N-acetyl-indigoidine)
Method: Wavelength: 600 nm. Flow rate: 1.0 mL/min. Sample solvent: DMSO. Injection volume: 10 μL. Column temperature: 35° C. Running time: 18 min.
Experimental group 5:50 mL of a fermentation broth of the strain HG-N-Idg01 cultured according to the method in Example 2 was collected and centrifuged to produce a cell pellet. The cell pellet was resuspended with 10 mL of a catalytic solution (including 1 g/L of glutaminc, 1 g/L of N-acetylglutamine, and 50 mM of a phosphate buffer), and a reaction was allowed at 25° C. and 220 rpm for 6 h. 100 μL of a sample was collected and tested by HPLC.
FIG. 2A and FIG. 2B show the wavelengths corresponding to the maximum absorption peaks of the experimental group 5.

[2] = Comparison of colors of solutions in water (ddH2O); conditions: 1 mg dissolved with 10 mL of ddH2O; visual observation
Method: 1 mg of an indigoidine standard was weighed and dissolved with 10 mL of ddH2O to produce a solution of indigoidine in ddH2O. 1 mg of N-acetyl-indigoidine purified in Example 4 was weighed and dissolved with 10 mL of ddH2O to produce a solution of N-acetyl-indigoidine in ddH2O. A color difference between the solution of indigoidine in ddH2O and the solution of N-acetyl-indigoidine in ddH2O was observed, and results were shown in FIG. 17A and FIG. 17B. […] It can be seen that N-acetyl-indigoidine has a more authentic color than indigoidine.

[3] = Comparison of colors of solutions in DMSO; conditions: 1 mg dissolved with 10 mL of DMSO; visual observation
Method: 1 mg of an indigoidine standard was weighed and dissolved with 10 mL of DMSO to produce a solution of indigoidine in DMSO. 1 mg of N-acetyl-indigoidine purified in Example 4 was weighed and dissolved with 10 mL of DMSO to produce a solution of N-acetyl-indigoidine in DMSO. A color difference between the solution of indigoidine in DMSO and the solution of N-acetyl-indigoidine in DMSO was observed, and results were shown in FIG. 16A and FIG. 16B. […] The solution of N-acetyl-indigoidine in DMSO has a more vibrant and brighter color than the solution of indigoidine in DMSO.

Molecule	wavelength corresponding to the maximum absorption peak [1] [nm]	color of the solution in ddH2O [2]	color of the solution in DMSO [3]
Indigoidine	600	purple-blue	blue
CC(=O)NC1=C/C(=C2/C=C(N)C(=O)NC2=O)C(=O)NC1=O [N-acetyl-indigoidine]	584	blue	bright-blue
